Where two headings read alike, the source gives them in different places.
Columns and labels:
[1] = molecular target: human RORγt ligand binding domain (RORγt LBD) (Homo sapiens (Human), UniProt P51449); test: RORγt ThermoFluor® assay (thermal shift binding); settings: read-out: ThermoFluor® Assay, Kd
Procedure, shortened: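 Binding was inferred from thermal stabilisation (ΔTm) of the E. coli-expressed RORγt LBD (0.065 mg/mL), monitored by 1,8-ANS (60 μM) emission at 500 nm during a 1 °C/min ramp. Buffer was Hepes 100 mM pH 7.0 with NaCl, GSH and Tween-20.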

full-length human RORγt = full-length human RORγt (Homo sapiens (Human), UniProt P51449); test: RORγt (full-length human) reporter assay, Conditions B or C; type: cell-based; settings: for RORγt (FL) Reporter Assay B or C, % inhibition (value marked *): marked *: footnote not given; for inhibition at 3 µM: at 3 μM compound concentration
Sequence of full-length human RORγt (P51449 other isoform, or with tags, fused parts or gaps): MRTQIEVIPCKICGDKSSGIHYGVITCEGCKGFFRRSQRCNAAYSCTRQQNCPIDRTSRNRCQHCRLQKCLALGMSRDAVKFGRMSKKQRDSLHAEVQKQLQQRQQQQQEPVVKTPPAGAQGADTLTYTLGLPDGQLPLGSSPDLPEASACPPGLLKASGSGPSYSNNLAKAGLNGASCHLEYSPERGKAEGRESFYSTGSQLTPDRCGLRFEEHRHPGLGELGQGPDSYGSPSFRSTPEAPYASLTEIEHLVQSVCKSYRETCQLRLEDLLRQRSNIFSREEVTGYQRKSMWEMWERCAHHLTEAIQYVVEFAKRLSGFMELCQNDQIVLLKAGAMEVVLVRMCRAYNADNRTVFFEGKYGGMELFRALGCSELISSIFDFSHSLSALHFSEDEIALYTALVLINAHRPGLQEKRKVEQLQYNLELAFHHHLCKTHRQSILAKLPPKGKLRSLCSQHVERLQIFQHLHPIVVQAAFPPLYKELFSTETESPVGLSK
Procedure, shortened: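 Readout is dual luciferase: firefly (GAL4-driven) normalized to DMSO-only and saturating-reference controls, then to CMV-Renilla. Full-length human RORγt fused to GAL4-DBD was transiently expressed in HEK293T; compound exposure ran overnight (16-20 h) starting 4-6 h after transfection, final FBS 1.3%, DMSO 0.1%.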

[2] = Conditions B or C, read-out: RORγt (FL) Reporter Assay B or C, IC50
[3] = read-out: RORγt (FL) Reporter Assay B or C, % inhibition
[4] = read-out: RORγt (FL) Reporter Assay B or C, IC50

Sequence of human RORγt ligand binding domain (RORγt LBD) (P51449 other isoform, or with tags, fused parts or gaps): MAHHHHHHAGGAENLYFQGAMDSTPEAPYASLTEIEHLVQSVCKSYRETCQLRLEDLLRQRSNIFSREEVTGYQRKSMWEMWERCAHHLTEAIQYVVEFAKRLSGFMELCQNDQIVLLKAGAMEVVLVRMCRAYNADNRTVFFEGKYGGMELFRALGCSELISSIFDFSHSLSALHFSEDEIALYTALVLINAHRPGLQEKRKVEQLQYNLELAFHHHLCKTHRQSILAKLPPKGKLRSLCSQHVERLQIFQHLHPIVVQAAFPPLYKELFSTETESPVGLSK

Row | Compound | Kd [1] | RORγt (FL) Reporter Assay B or C, % inhibition (value marked *) (full-length human RORγt; Conditions B or C) | IC50 (full-length human RORγt; [2]) | IC50 (full-length human RORγt; RORγt (FL) Reporter Assay B or C, IC50) | inhibition at 3 µM (full-length human RORγt; [3]) | IC50 (full-length human RORγt; [4]) | inhibition at 1 µM (full-length human RORγt; at 1 μM compound concentration, read-out: RORγt (FL) Reporter Assay B or C, % inhibition) | RORγt (FL) Reporter Assay B or C, % inhibition (value marked ***) (full-length human RORγt; Conditions B or C, marked ***: footnote not given)
1 | C[C@H]1CCCN1C(=O)c1nc(C(=O)NCC(C)(C)O)sc1-c1cnc(NC(C)(C)C2CC2)cc1C(F)F [Example 105, (S)-5-(6-((2-Cyclopropylpropan-2-yl)amino)-4-(difluoromethyl)pyridin-3-yl)-N-(2-hydroxy-2-methylpropyl)-4-(2-methylpyrrolidine-1-carbonyl)thiazole-2-carboxamide] | 0.002 µM | 116* % | 0.015 µM |  |  |  |  | 
2 | O=C(N[C@H]1CC[C@H](O)C1)c1nc(C(=O)N2C3CCC2CC3)c(-c2cnc(N[C@@H](C3CC3)C(F)(F)F)cc2C(F)F)s1 [Example 441, 4-((1s,4s)-7-Azabicyclo[2.2.1]heptane-7-carbonyl)-5-[6-[[(1S)-1-cyclopropyl-2,2,2-trifluoro-ethyl]amino]-4-(difluoromethyl)-3-pyridyl]-N-[(1S,3S)-3-hydroxycyclopentyl]thiazole-2-carboxamide] | 0.00047 µM |  |  | 0.036 µM | 106% |  |  | 
3 | C[C@H]1CCCN1C(=O)c1nc(C(=O)NCC(C)(C)N)sc1-c1cnc(NC(C)(C)C)cc1C(F)(F)F [Example 355, N-(2-Amino-2-methyl-propyl)-5-[6-(tert-butylamino)-4-(trifluoromethyl)-3-pyridyl]-4-[(2S)-2-methylpyrrolidine-1-carbonyl]thiazole-2-carboxamide] | 0.022 µM |  |  |  | 98% | 0.17 µM |  | 
4 | C[C@H]1CCCN1C(=O)c1nc(C(=O)NCC(O)C(F)(F)F)sc1-c1cnc(NC(C)(C)C)cc1C(F)(F)F (stereo in doubt) [Example 352, 5-[6-(tert-Butylamino)-4-(trifluoromethyl)-3-pyridyl]-4-(2-methylpyrrolidine-1-carbonyl)-N-(3,3,3-trifluoro-2-hydroxy-propyl)thiazole-2-carboxamide] | 0.0011 µM |  |  |  | 103% | 0.042 µM |  | 
5 | C[C@H]1CC(F)(F)CN1C(=O)c1nc(C(=O)N[C@H]2C[C@H](O)C2)sc1-c1cnc(N[C@@H](C2CC2)C(F)(F)F)cc1C(F)F [Example 315, 5-(6-(((S)-1-Cyclopropyl-2,2,2-trifluoroethyl)amino)-4-(difluoromethyl)pyridin-3-yl)-4-((S)-4,4-difluoro-2-methylpyrrolidine-1-carbonyl)-N-((1r,3S)-3-hydroxycyclobutyl)thiazole-2-carboxamide] | 0.0029 µM |  |  |  |  | 0.015 µM | 99% | 
6 | CC(C)[C@@H](C)Nc1cc(C(F)F)c(-c2sc(C(=O)NCC(C)(C)O)nc2C(=O)N2CCC[C@@H]2C)cn1 [Example 297, 5-(4-(Difluoromethyl)-6-(((R)-3-methylbutan-2-yl)amino)pyridine-3-yl)-N-(2-hydroxy-2-methylpropyl)-4-((S)-2-methylpyrrolidine-1-carbonyl)thiazole-2-carboxamide] | 0.018 µM |  |  |  | 110% | 0.05 µM |  | 
7 | CC[C@H](Nc1cc(C(F)F)c(-c2sc(C(=O)N[C@H]3CCC[C@@H]3O)nc2C(=O)N2CCC[C@@H]2C)cn1)C(F)(F)F [Example 229, 5-(4-(Difluoromethyl)-6-(((1S)-1-(trifluoromethyl)propyl)amino)-3-pyridyl)-N-((1S,2S)-2-hydroxycyclopentyl)-4-((2S)-2-methylpyrrolidine-1-carbonyl)thiazole-2-carboxamide] | 0.00097 µM | 83* % | 0.042 µM |  |  |  |  | 
8 | C[C@H]1CCCN1C(=O)c1nc(C(=O)N[C@H]2CC[C@@H]2O)sc1-c1cnc(NC(C)(C)C)cc1C(F)(F)F (relative stereo) [Example 371, 5-(6-(tert-Butylamino)-4-(trifluoromethyl)pyridin-3-yl)-N-((1S*,2S*)-2-hydroxycyclobutyl)-4-((S)-2-methylpyrrolidine-1-carbonyl)thiazole-2-carboxamide] | 0.00088 µM |  |  |  | 108% | 0.019 µM |  | 
9 | C[C@H]1CC(F)(F)CN1C(=O)c1nc(C(=O)N[C@H](C)C(C)(C)O)sc1-c1cnc(NC(C)(C)C)cc1C(F)F [Example 256, 5-[6-(tert-Butylamino)-4-(difluoromethyl)-3-pyridyl]-4-[(2S)-4,4-difluoro-2-methyl-pyrrolidine-1-carbonyl]-N-[(1R)-2-hydroxy-1,2-dimethyl-propyl]thiazole-2-carboxamide] | 0.0017 µM |  |  |  | 123% | 0.02 µM |  | 
10 | C[C@H](CO)NC(=O)c1nc(C(=O)N2CCC[C@@H]2C)c(-c2cnc(N[C@@H](C)C(F)(F)F)cc2C(F)F)s1 [Example 284, 5-(4-(Difluoromethyl)-6-(((S)-1,1,1-trifluoropropan-2-yl)amino)pyridin-3-yl)-N—((R)-1-hydroxypropan-2-yl)-4-((S)-2-methylpyrrolidine-1-carbonyl)thiazole-2-carboxamide] | 0.0081 µM |  |  |  | 111% | 0.11 µM |  | 
11 | C[C@H]1CC(F)(F)CN1C(=O)c1nc(C(=O)N[C@H](C)C(C)(C)O)sc1-c1cnc(NC2(C)CCC2)cc1C(F)(F)F [Example 196, 4-((S)-4,4-Difluoro-2-methylpyrrolidine-1-carbonyl)-N—((R)-3-hydroxy-3-methylbutan-2-yl)-5-(6-((1-methhylcyclobutyl)amino)-4-(trifluoromethyl)pyridine-3-yl)thiazole-2-carboxamide] | 0.00064 µM | 109* % | 0.027 µM |  |  |  |  | 
12 | C[C@H]1CCCN1C(=O)c1nc(C(=O)NC2COC2)sc1-c1cnc(NC(C)(C)C)cc1C(F)(F)F [Example 259, 5-[6-(tert-Butylamino)-4-(trifluoromethyl)-3-pyridyl]-4-[(2S)-2-methylpyrrolidine-1-carbonyl]-N-(oxetan-3-yl)thiazole-2-carboxamide] | 0.003 µM |  |  |  | 101% | 0.025 µM |  | 
13 | CC[C@H](Nc1cc(C(F)F)c(-c2sc(C(=O)N[C@H](C)C(C)(C)O)nc2C(=O)N2CC(F)(F)C[C@@H]2C)cn1)C(F)(F)F [Example 245, 4-[(2S)-4,4-Difluoro-2-methyl-pyrrolidine-1-carbonyl]-5-[4-(difluoromethyl)-6-[[(1S)-1-(trifluoromethyl)propyl]amino]-3-pyridyl]-N-[(1R)-2-hydroxy-1,2-dimethyl-propyl]thiazole-2-carboxamide] | 0.0016 µM | 98* % | 0.026 µM |  |  |  |  | 
14 | C[C@H](Nc1cc(C(F)F)c(-c2sc(C(=O)NCC(C)(C)O)nc2C(=O)N2C3CCC2CC3)cn1)C(F)(F)F [Example 136] | 0.016 µM | 109* % | 0.79 µM |  |  |  |  | 
15 | CC[C@H](Nc1cc(C(F)F)c(-c2sc(C(=O)NC3CN(C(C)=O)C3)nc2C(=O)N2CCC[C@@H]2C)cn1)C(F)(F)F [Example 382, N-(1-Acetylazetidin-3-yl)-5-[4-(difluoromethyl)-6-[[(1S)-1-(trifluoromethyl)propyl]amino]-3-pyridyl]-4-[(2S)-2-methylpyrrolidine-1-carbonyl]thiazole-2-carboxamide] | 0.047 µM |  |  |  | 107% | 0.3 µM |  | 
16 | C[C@H](Nc1cc(C(F)F)c(-c2sc(C(=O)N[C@H]3CCC[C@@H]3O)nc2C(=O)N2CC(F)(F)C[C@@H]2C)cn1)C(F)(F)F [Example 418, 4-[(2S)-4,4-Difluoro-2-methyl-pyrrolidine-1-carbonyl]-5-[4-(difluoromethyl)-6-[[(1S)-2,2,2-trifluoro-1-methyl-ethyl]amino]-3-pyridyl]-N-[(1S,2S)-2-hydroxycyclopentyl]thiazole-2-carboxamide] | 0.00077 µM |  |  |  | 105% | 0.032 µM |  | 
17 | C[C@H](Nc1cc(C(F)F)c(-c2sc(C(=O)N[C@@H]3COC[C@@H]3O)nc2C(=O)N2CCC[C@@H]2C)cn1)C(F)(F)F (single isomer, unassigned) [Example 159, 5-(4-(Difluoromethyl)-6-(((S)-1,1,1-trifluoropropan-2-yl)amino)pyridin-3-yl)-N-((3R*,4R*)-4-hydroxytetrahydrofuran-3-yl)-4-((S)-2-methylpyrrolidine-1-carbonyl)thiazole-2-carboxamide] | 0.022 µM |  | 0.032 µM |  |  |  |  | 93*** %
18 | CCC(C)(C)Nc1cc(C(F)F)c(-c2sc(C(=O)NCC(C)(C)O)nc2C(=O)N2CC(F)(F)C[C@@H]2C)cn1 [Example 94, (S)-4-(4,4-Difluoro-2-methylpyrrolidine-1-carbonyl)-5-(4-(difluoromethyl)-6-(tert-pentylamino)pyridin-3-yl)-N-(2-hydroxy-2-methylpropyl)thiazole-2-carboxamide] | 0.00036 µM | 115* % | 0.012 µM |  |  |  |  | 
19 | C[C@H](Nc1cc(C(F)F)c(-c2sc(C(=O)N[C@H]3C[C@H](O)C3)nc2C(=O)N2C3CCC2CC3)cn1)C(F)(F)F [Example 221, 4-((1s,4s)-7-Azabicyclo[2.2.1]heptane-7-carbonyl)-5-(4-(difluoromethyl)-6-(((1S)-2,2,2-trifluoro-1-methyl-ethyl)amino)-3-pyridyl)-N-((1r,3S)-3-hydroxycyclobutyl)thiazole-2-carboxamide] | 0.027 µM | 103* % | 0.078 µM |  |  |  |  | 

Source: patent US10975068B2, “6-aminopyridin-3-yl thiazoles as modulators of RORγT” (Janssen Pharmaceutica NV, priority 2016, dated 2021)
